*1 amine or outer side, *2 acyl side, *3 side chain or, on linkers, in order; H or OH if unused. Where a SMILES comes first, the peptide text is derived from it. Side-chain parts run from the residue outwards. [ ]: non-standard residue; d: D form. The star is where a group is joined. DOTA = O=C(O)CN1CCN(CC(=O)O)CCN(CC(=O)*)CCN(CC(=O)O)CC1; NH(2-(imidazol-4-yl)ethyl) = c1ncc(CCN*)[nH]1; Suc = O=C(CCC(=O)[*:2])[*:1]
How the values were obtained:
Parameters in all cases: species or system nude mice
[1] = in vivo; settings: nude, mouse, total radioactivity
Protocol: (§1) The bispecific antibody I-125-hMN-14×679-F(ab′)2 (anti-CEA×anti-HSG, radiolabeled with iodine-125 as a tracer radionuclide) was injected into nude mice bearing GW39 human colon tumor xenografts. Twenty-four hours later, the Ga-67-IMP 241 peptide, prepared according to the method described in Example # 4, was injected. At specified times post-injection, five animals per time-point were sacrificed and tissues collected and counted for both I-125 and Ga-67 radioactivity, using dual energy windows for each respective radionuclide. Additionally, biodistribution of Ga-67-IMP 241 given alone, without bsAb pretargeting is shown in Table 3 (four animals per group in this series). In each Table, the data is presented in terms of percent injected dose per gram of tissue (± standard deviation). Additionally, the biodistribution data for I-125-hMN-14×679-F(ab′)2 and Ga-67-IMP 241, from the same experiment, is reported in terms of tumor-to non-tumor ratio (T/NT) (Tables 4 & 5, for 1–125 and Ga-67, respectively).

[2] = test system: GW39 human colon tumor xenografts; test: in vivo; settings: mouse
Protocol: as §1

[3] = test system: GW39 human colon tumor xenografts; settings: mouse, in vivo
Protocol: as §1

[4] = Tumor-to-tissue ratio Lg. Intestine
[5] = Tumor-to-tissue ratio Sm. Intestine

With `NC(=O)[C@H](CCCCNC(=O)CNC(=O)CCC(=O)NCCc1cnc[nH]1)NC(=O)[C@@H](Cc1ccc(O)cc1)NC(=O)[C@H](CCCCNC(=O)CNC(=O)CCC(=O)NCCc1cnc[nH]1)NC(=O)[C@H](Cc1ccccc1)NC(=O)CN1CCN(CC(=O)O)CCN(CC(=O)O)CCN(CC(=O)O)CC1` [Ga-67-IMP 241, metal not drawn] ({DOTA}-FK([Gly-Suc-NH(2-(imidazol-4-yl)ethyl)])[dY]K([Gly-Suc-NH(2-(imidazol-4-yl)ethyl)])-NH2) the tissue to tissue ratio at 1 h ([1]; Tumor-to-tissue ratio Blood) was 1.7 ± 0.8, the tissue to tissue ratio at 2 h ([1]; Tumor-to-tissue ratio Blood) was 6.1 ± 5 and the tissue to tissue ratio at 3 h ([1]; Tumor-to-tissue ratio Blood) was 8.5 ± 9.5. For the same compound, the tissue to tissue ratio at 4 h ([1]; Tumor-to-tissue ratio Blood) was 8.7 ± 4.6, the tissue to tissue ratio at 6 h ([1]; Tumor-to-tissue ratio Blood) was 12.1 ± 8 and the tissue to tissue ratio at 1 h ([1]; Tumor-to-tissue ratio Bone) was 11.5 ± 11. It also gave a tissue to tissue ratio at 2 h ([1]; Tumor-to-tissue ratio Bone) of 24.6 ± 15.1, a tissue to tissue ratio at 3 h ([1]; Tumor-to-tissue ratio Bone) of 17.8 ± 13.7 and a tissue to tissue ratio at 4 h ([1]; Tumor-to-tissue ratio Bone) of 18.3 ± 3.1. The tissue to tissue ratio at 6 h ([1]; Tumor-to-tissue ratio Bone) was 53 ± 41.7, the tissue to tissue ratio at 1 h ([1]; Tumor-to-tissue ratio Kidney) was 2.3 ± 1.6 and the tissue to tissue ratio at 2 h ([1]; Tumor-to-tissue ratio Kidney) was 3.5 ± 2.2. For the same compound, the tissue to tissue ratio at 3 h ([1]; Tumor-to-tissue ratio Kidney) was 2.4 ± 1.8, the tissue to tissue ratio at 4 h ([1]; Tumor-to-tissue ratio Kidney) was 3.1 ± 1.1 and the tissue to tissue ratio at 6 h ([1]; Tumor-to-tissue ratio Kidney) was 4.3 ± 2.7. For the same compound, the tissue to tissue ratio at 1 h [1, 4] was 67.3 ± 44.1, the tissue to tissue ratio at 2 h [1, 4] was 74.2 ± 55 and the tissue to tissue ratio at 3 h [1, 4] was 72.7 ± 89. For the same compound, the tissue to tissue ratio at 4 h [1, 4] was 56.5 ± 21.7, the tissue to tissue ratio at 6 h [1, 4] was 162 ± 270 and the tissue to tissue ratio at 1 h ([1]; Tumor-to-tissue ratio Liver) was 8 ± 3.8. The tissue to tissue ratio at 2 h ([1]; Tumor-to-tissue ratio Liver) was 15.9 ± 8.9, the tissue to tissue ratio at 3 h ([1]; Tumor-to-tissue ratio Liver) was 13.1 ± 12 and the tissue to tissue ratio at 4 h ([1]; Tumor-to-tissue ratio Liver) was 16.2 ± 8.6. For the same compound, the tissue to tissue ratio at 6 h ([1]; Tumor-to-tissue ratio Liver) was 16 ± 10.5, the tissue to tissue ratio at 1 h ([1]; Tumor-to-tissue ratio Lungs) was 4.5 ± 1.9 and the tissue to tissue ratio at 2 h ([1]; Tumor-to-tissue ratio Lungs) was 13.1 ± 7.5. It also gave a tissue to tissue ratio at 3 h ([1]; Tumor-to-tissue ratio Lungs) of 11.4 ± 11.1, a tissue to tissue ratio at 4 h ([1]; Tumor-to-tissue ratio Lungs) of 13.5 ± 5.9 and a tissue to tissue ratio at 6 h ([1]; Tumor-to-tissue ratio Lungs) of 20.2 ± 12.5. For the same compound, the tissue to tissue ratio at 1 h [1, 5] was 18.6 ± 9.1, the tissue to tissue ratio at 2 h [1, 5] was 27.7 ± 9.1 and the tissue to tissue ratio at 3 h [1, 5] was 35.5 ± 26. It also gave a tissue to tissue ratio at 4 h [1, 5] of 22 ± 12.7, a tissue to tissue ratio at 6 h [1, 5] of 47.2 ± 35.9 and a tissue to tissue ratio at 1 h ([1]; Tumor-to-tissue ratio Spleen) of 10.7 ± 7.2. It also gave a tissue to tissue ratio at 2 h ([1]; Tumor-to-tissue ratio Spleen) of 26.6 ± 28.7, a tissue to tissue ratio at 3 h ([1]; Tumor-to-tissue ratio Spleen) of 16.3 ± 13.1 and a tissue to tissue ratio at 4 h ([1]; Tumor-to-tissue ratio Spleen) of 26.1 ± 23.4. The tissue to tissue ratio at 6 h ([1]; Tumor-to-tissue ratio Spleen) was 17.4 ± 12.7, the tissue to tissue ratio at 1 h ([1]; Tumor-to-tissue ratio Stomach) was 36.7 ± 22.8 and the tissue to tissue ratio at 2 h ([1]; Tumor-to-tissue ratio Stomach) was 52.8 ± 17.6. The tissue to tissue ratio at 3 h ([1]; Tumor-to-tissue ratio Stomach) was 73.6 ± 47.4, the tissue to tissue ratio at 4 h ([1]; Tumor-to-tissue ratio Stomach) was 56.9 ± 36 and the tissue to tissue ratio at 6 h ([1]; Tumor-to-tissue ratio Stomach) was 112 ± 60.7. The “Tumor-to-tissue ratio Blood” value [2] was “above 6:1”, the “Tumor-to-tissue ratio Kidney” value [2] was ~3.5:1 and the “Clearance when given alone” value [3] was “essentially clears completely within the first hour post-injection”.
